Reference: patent US9006454B2, “Dihydroorotate dehydrogenase inhibitors” (Merck Serono S.A., priority 2009, dated 2015)

Columns and labels:
DHODH = DHODH (Homo sapiens (Human), UniProt Q02127); assay: DHODH activity assay (coupled enzyme assay, DCIP reduction, absorbance at 610 nm); type: biochemical; conditions: for inhibition at 10 µM: read-out: inh @ 10 uM hDHODH (%)
Jurkat cells = assay: Measurement of cell proliferation (Jurkat cell), XTT assay; type: cell-based; conditions: for inhibition at 1 µM: compound at 1 uM, read-out: % inh Jurkat_cells @ 1 uM (%); for EC50: XTT cell viability
Summary of the method: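 Jurkat T cells, 100,000 per well in RPMI with 10% FBS, exposed 72 h at 37 °C to serial compound dilutions (typically from 10 μM, half-log steps, triplicate) at 0.25–0.5% DMSO. Viability by XTT/PMS, A465 after 2 h, media background subtracted, untreated cells as 100%; EC50 from curve fit.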

Sequence of DHODH (Q02127 whole entry): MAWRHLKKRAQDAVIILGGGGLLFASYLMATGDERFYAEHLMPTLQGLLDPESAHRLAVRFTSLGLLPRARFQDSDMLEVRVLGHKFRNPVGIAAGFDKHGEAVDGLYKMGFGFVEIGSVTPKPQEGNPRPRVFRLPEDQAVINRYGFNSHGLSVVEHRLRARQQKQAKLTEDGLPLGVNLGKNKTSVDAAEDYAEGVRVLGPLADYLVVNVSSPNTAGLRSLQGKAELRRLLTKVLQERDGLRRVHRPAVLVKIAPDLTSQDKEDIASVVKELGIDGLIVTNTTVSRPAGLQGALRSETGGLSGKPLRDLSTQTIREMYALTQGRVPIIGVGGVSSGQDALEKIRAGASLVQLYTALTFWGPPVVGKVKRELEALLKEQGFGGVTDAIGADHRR

IC50 (DHODH)	inhibition at 10 µM (DHODH; compound at 10 uM)	inh @ 10 uM hDHODH (%) (DHODH; compound at 10 uM)	EC50 (Jurkat cells; 72 hrs)	EC50 (Jurkat cells; Homo sapiens, Jurkat, 72 h)	SMILES	inhibition at 1 µM (Jurkat cells; Homo sapiens, Jurkat)
6010 nM	58.7%	–	–	–	Cc1cc(C(=O)O)c2[nH]c(-c3ccc(-c4ccc(OCCC5CCNCC5)cc4)cc3)nc2c1 [I95]	14.3%
–	43.3%	–	–	–	Cc1cc(C(=O)O)c2[nH]c(-c3ccc(-c4ccc(CN(C)C)cc4)cc3)nc2c1 [I161]	9.7%
–	5.7%	–	–	–	Cc1cc(C(=O)O)c2[nH]c(-c3ccc(-n4ccccc4=O)cc3)nc2c1 [I64]	1.5%
616 nM	–	92.6%	753 nM	–	COc1cccc(-c2ccc(-c3nc4c(C(=O)O)cccc4[nH]3)c(F)c2)c1 [I3]	–
965 nM	86.7%	–	–	–	O=C(O)c1cccc2nc(-c3ccc(-c4ccccc4F)cc3F)[nH]c12 [I24]	53.2%
7200 nM	64%	–	–	–	O=C(O)c1cccc2[nH]c(-c3cccc(Oc4ccccc4)c3)nc12 [I9]	20%
–	41.5%	–	–	–	O=C(O)c1cccc2[nH]c(-c3c(F)c(F)c(Oc4ccccc4)c(F)c3F)nc12 [I188]	17%
–	69.1%	–	–	–	Cc1cc(C(=O)OCCO)c2[nH]c(-c3c(F)c(F)c(-c4ccccc4)c(F)c3F)nc2c1 [I156]	31.4%
659 nM	97.3%	–	–	–	O=C(O)c1cc(Cl)cc2[nH]c(-c3ccc(-c4ccccc4)cc3F)nc12 [I44]	64.9%
3030 nM	80.1%	–	–	–	O=C(O)c1cccc2nc(-c3ccc(-c4ccccc4)cc3)oc12 [I19]	34.3%
490 nM	96.4%	–	–	–	O=C(O)c1cccc2[nH]c(-c3ccc(-c4ccccc4F)cc3)nc12 [I15]	64.4%
18 nM	79.3%	–	–	–	O=C(O)c1cccc2[nH]c(-c3c(F)c(F)c(-c4ccccc4F)c(F)c3F)nc12 [I131]	78.8%
862 nM	78%	–	–	–	Cc1cc(C(=O)O)c2nc(-c3ccc(-c4cccc(O)c4)cc3)[nH]c2c1 [I116]	59%
8.86 nM	97%	–	–	–	Cc1cc(C(=O)O)c2[nH]c(-c3c(F)c(F)c(-c4cccc(F)c4)c(F)c3F)nc2c1 [I126]	94%
20 nM	90.8%	–	–	–	O=C(O)c1cccc2[nH]c(-c3c(F)c(F)c(-c4cc(F)cc(F)c4)c(F)c3F)nc12 [I129]	70.5%
815 nM	93.1%	–	–	–	Cc1cc(C(=O)O)c2nc(-c3c(F)c(F)c(-c4cccc(NC(=O)C5CCCN5)c4)c(F)c3F)[nH]c2c1 (centres unmarked) [I86]	70.8%
373 nM	93.9%	–	–	105 nM	Cc1cc(C(=O)O)c2[nH]c(-c3ccc(-c4ccccc4F)cc3)nc2c1 [I26]	75.9%
–	63.9%	–	–	–	O=C(O)c1cccc2[nH]c(-c3ccc(-c4ccc(OCc5ccncc5)cc4)cc3)nc12 [I183]	23.5%
–	51.3%	–	–	–	O=C(O)c1cccc2[nH]c(-c3ccc(-c4ccc(O)cc4)cc3)nc12 [I177]	40.5%

IC50 (DHODH)	inhibition at 10 µM (DHODH; compound at 10 uM)	inh @ 10 uM hDHODH (%) (DHODH; compound at 10 uM)	EC50 (Jurkat cells; 72 hrs)	EC50 (Jurkat cells; Homo sapiens, Jurkat, 72 h)	SMILES	inhibition at 1 µM (Jurkat cells; Homo sapiens, Jurkat)
1200 nM	107%	–	–	–	Cc1cc(-c2nnn[nH]2)c2nc(-c3c(F)c(F)c(-c4ccccc4)c(F)c3F)[nH]c2c1 [I103]	64.2%
3690 nM	78.8%	–	–	–	Cc1cc(C(=O)O)c2nc(-c3ccc(-c4ccc(NC(=O)C5CCNCC5)cc4)cc3)[nH]c2c1 [I90]	44.5%
437 nM	99.7%	–	–	–	O=C(O)c1cc(F)cc2[nH]c(-c3ccc(-c4cccnc4)cc3)nc12 [I58]	69.8%
–	26.6%	–	–	–	O=C(O)c1cccc2[nH]c(-c3ccc(S(=O)(=O)c4ccccc4)cc3)nc12 [I54]	8%
60 nM	104%	–	–	–	Cc1cc(C(=O)O)c2[nH]c(-c3c(F)c(F)c(-c4ccccc4OCc4ccccc4)c(F)c3F)nc2c1 [I100]	96.2%
–	94.1%	–	–	–	Cc1cc(C(=O)O)c2nc(-c3ccc(-c4ccc(NC(=O)[C@@H]5CCCN5)cc4)cc3)[nH]c2c1 [I89]	52%
–	30%	–	–	–	N#Cc1ccccc1Oc1ccc(-c2ccc(-c3nc4c(C(=O)O)cccc4[nH]3)cc2)cc1 [I175]	15%
282 nM	89.5%	–	–	–	O=C(O)c1cccc2[nH]c(-c3c(F)c(F)c(-c4cccnc4)c(F)c3F)nc12 [I136]	68.4%
–	32.4%	–	–	–	Cc1cc(C(=O)O)c2nc(-c3cc(-c4ccccc4)cs3)[nH]c2c1 [I49]	11%
48 nM	101%	–	–	–	Cc1cc(C(=O)O)c2nc(-c3c(F)c(F)c(-c4ccc(OCc5ccccc5)cc4)c(F)c3F)[nH]c2c1 [I127]	96%
218 nM	103%	–	–	–	O=C(O)c1cccc2[nH]c(-c3c(F)c(F)c(-c4cccc(OC(F)(F)F)c4)c(F)c3F)nc12 [I148]	88.6%
7070 nM	59.8%	–	–	–	Cc1cc(C(=O)O)c2nc(-c3ccc(-c4ccccc4)cn3)[nH]c2c1 [I53]	22.7%
–	57.4%	–	–	–	Cc1cc(C(=O)O)c2[nH]c(-c3ccc(-c4ccc(CNC(C)C)cc4)cc3)nc2c1 [I160]	19.6%
28.2 nM	97%	–	–	–	O=C(O)c1cccc2nc(-c3c(F)c(F)c(-c4cccc(F)c4)c(F)c3F)[nH]c12 [I125]	92%
1200 nM	88%	–	–	–	O=C(O)c1cccn2nc(-c3ccc(-c4ccccc4)cc3)nc12 [I122]	55.4%
110 nM	106%	–	–	–	Cc1ccc(C)n1-c1c(F)c(F)c(-c2nc3cccc(C(=O)O)c3[nH]2)c(F)c1F [I110]	97%
–	71.3%	–	–	–	Cc1cc(C(=O)NC(C)C)c2[nH]c(-c3c(F)c(F)c(-c4ccccc4)c(F)c3F)nc2c1 [I162]	28.5%
1590 nM	65.1%	–	–	–	Cc1cc(C(=O)O)c2nc(-c3ccc(-c4ccc(Oc5ccc(C=O)cc5)cc4)cc3)[nH]c2c1 [I135]	21.8%
–	57.7%	–	–	–	O=C(O)c1cccc2[nH]c(-c3ccc(-c4ccc(OCc5ccccn5)cc4)cc3)nc12 [I182]	26.9%

IC50 (DHODH)	inhibition at 10 µM (DHODH; compound at 10 uM)	inh @ 10 uM hDHODH (%) (DHODH; compound at 10 uM)	EC50 (Jurkat cells; 72 hrs)	EC50 (Jurkat cells; Homo sapiens, Jurkat, 72 h)	SMILES	inhibition at 1 µM (Jurkat cells; Homo sapiens, Jurkat)
56 nM	104%	–	–	–	Cc1cc(C(=O)O)c2nc(-c3c(F)c(F)c(-c4ccc(NC(=O)C5CCCN5)cc4)c(F)c3F)[nH]c2c1 (centres unmarked) [I85]	93.4%
32 nM	92.5%	–	–	2600 nM	Cc1cc(C(=O)O)c2nc(-c3c(F)c(F)c(-c4cccnc4)c(F)c3F)[nH]c2c1 [I141]	86.9%
209 nM	73.1%	–	–	–	O=C(O)c1cccc2[nH]c(-c3c(F)c(F)c(-c4cccc(F)c4F)c(F)c3F)nc12 [I128]	64.9%
4790 nM	78.8%	–	–	–	Cc1cc(C(=O)O)c2nc(-c3ccc(-c4ccccc4)cc3)n(CCO)c2c1 [I93]	29%
–	16.8%	–	–	–	N#Cc1cccc2nc(-c3ccc(-c4ccccc4)cc3)[nH]c12 [I38]	8%
922 nM	86.2%	–	–	–	O=C(O)c1cccc2nc(-c3ccc(-c4ccccc4)cc3F)[nH]c12 [I27]	57.1%
3 nM	105%	–	–	41 nM	Cc1cc(C(=O)O)c2c(c1)nc(-c1c(F)c(F)c(-c3ccccc3)c(F)c1F)n2C [I123]	111%
3820 nM	82.4%	–	–	–	Cc1cc(C(=O)O)c2[nH]c(-c3ccc(-c4ccccc4)nc3)nc2c1 [I75, 6-Methyl-2-(6-phenyl-pyridin-3-yl)-3H-benzoimidazole-4-carboxylic acid]	39.3%
1180 nM	97.7%	–	–	–	COc1cc(-c2ccccc2)ccc1-c1nc2c(C(=O)O)cc(C)cc2[nH]1 [I46]	57.1%
–	60%	–	–	–	O=C(O)c1cccc2[nH]c(-c3ccc(-c4ccc(Oc5ccccn5)cc4)cc3)nc12 [I172]	21%
–	80%	–	–	–	O=C(O)c1cccc2[nH]c(-c3ccc(-c4ccc(CO)cc4)cc3)nc12 [I173]	44%
–	84%	–	–	–	Cc1cc(C(=O)O)c2nc(-c3ccc(-c4ccc(CO)cc4)cc3)[nH]c2c1 [I170]	57%
1500 nM	91%	–	–	–	Cc1cc(C(=O)O)c2[nH]c(-c3ccc(-c4ccccc4OCc4ccccc4)cc3)nc2c1 [I106]	48%
645 nM	94.2%	–	–	–	Cc1cc(C(=O)O)c2[nH]c(-c3ccc(-c4ccc(O)c(O)c4)cc3)nc2c1 [I91]	62.3%
441 nM	89.8%	–	–	–	O=C(O)c1cccc2[nH]c(-c3c(F)c(F)c(-c4ccsc4)c(F)c3F)nc12 [I144]	68.2%
–	51.8%	–	–	–	O=C(O)c1cccc2nc(-c3ccc(-c4ccc(OCCO)cc4)cc3)[nH]c12 [I157]	15.5%
403 nM	96.3%	–	–	206 nM	Cc1cc(C(=O)O)c2[nH]c(-c3ccc(-c4ccccc4)cc3F)nc2c1 [I28]	75.4%
407 nM	99.2%	–	–	450 nM	Cc1cc(C(=O)O)c2nc(-c3ccc(-c4cccnc4)cc3)[nH]c2c1 [I59]	73.5%
